Laboratory results: PMC11002876, “KcsA-Kv1.x chimeras with complete ligand-binding sites provide improved predictivity for screening selective Kv1.x blockers” (The Journal of Biological Chemistry, 2024)
Entries after “also recorded” stand apart in the source; their conditions may differ. Read-outs that look alike come from different tables or passages of the source. Where a SMILES comes first, the peptide text is derived from it.

Experiments:
[1] = tested on: human Kv1.1; details: cited from earlier work; for IC50: human Kv1.1 channel blocking, patch-clamp, read-out: IC50, Kv1.x blocking (Kv1.1)
[2] = target: T1, KcsA-Kv1.2 T-only chimera (Streptomyces lividans, UniProt P0A334, A54E/A57S/G53D/G56E/I60P/L59F/P55R/R52A/R64D/T61S/Y62I); assay: Phage-binding competition assay, KcsA-Kv1.2 T-only; parameters: species or system human Kv1.2 turret in Streptomyces lividans KcsA
T1 sequence (P0A334 1-160 R52A/G53D/A54E/P55R/G56E/A57S/L59F/I60P/T61S/Y62I/R64D): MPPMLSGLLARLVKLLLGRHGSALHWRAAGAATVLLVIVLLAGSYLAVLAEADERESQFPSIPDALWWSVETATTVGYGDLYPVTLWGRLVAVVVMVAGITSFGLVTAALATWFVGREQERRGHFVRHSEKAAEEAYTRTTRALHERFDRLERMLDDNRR
Protocol: (§1) Phage stock solutions were diluted to working concentration with phage resuspension buffer supplemented with 2 mM DDM. For protein immobilization, the following amounts were used in a final volume of 50 μl/well: wt KcsA, 0.1 μg; KcsA-Kv1.1 T-only, 0.005 μg; KcsA-Kv1.1 T+F, 0.02 μg; KcsA-Kv1.2 T-only, 0.01 μg; KcsA-Kv1.2 T+F, 0.1 μg; KcsA-Kv1.3 T-only, 0.01 μg; and KcsA-Kv1.3 T+F, 0.1 μg. Protein samples were diluted in 50 μl of storage buffer (20 mM Tris pH8.0, 300 mM KCl, 2 mM DDM) and were added to the designated wells of a Pierce Clear, 96-Well Nickel Coated Plate (15442, Thermo Fisher Scientific), then incubated for 1 h at room temperature on a horizontal shaker at 130 rpm. The plate was blocked for 1 h at room temperature with 180 μl/well TBS-BSA supplemented with 1 mM DDM. Following blocking, the wells were washed 4× with washing buffer (300 μl TBS-Tween, 0.1% v/v) using a Wellwash Versa microplate washer (Thermo Fisher Scientific); then 50 μl phage solution (in TBS-BSA-Tween, 0.1% v/v, 2 mM DDM) at determined phage concentration was added to the wells and incubated for 1 h at room temperature on a horizontal shaker. The plate was washed 4× with washing buffer, then 50 μl anti-M13 IgG HRP (MA5-36125, Invitrogen) diluted to 1:2500 in TBS-Tween (0.1% v/v) was added to the wells and incubated for 1 h at room temperature. The plate was washed again 4× with 300 μl/well washing buffer. Finally, 50 μl/well 1-Step Ultra TMB-ELISA solution (34028, Thermo Fisher Scientific) was added to the wells, and the developing signal was stopped with 50 μl 1M HCl after 5 to 10 min. The light absorbance signal was read at 450 nm with Byonoy absorbance 96 plate reader (Byonoy GmbH).
(§2) For protein immobilization, the following amounts were used in a final volume of 50 μl/well: KcsA-Kv1.1 T-only, 0.005 μg; KcsA-Kv1.1 T+F, 0.01 μg; KcsA-Kv1.2 T-only, 0.025 μg; KcsA-Kv1.2 T+F, 0.0125 μg; KcsA-Kv1.3 T-only, 0.01 μg; and KcsA-Kv1.3 T+F, 0.1 μg. Protein samples were diluted in storage buffer. Binding of given concentrations of relevant ligand-displaying phages quantified by light absorbance ([…]) were investigated in a similar manner as in phage ELISA-binding assay, while different concentrations of competing toxin test substances were applied simultaneously. The results were converted to percent inhibitions (percent displacement) of the indicator phage binding, and relative affinities of the tested toxins were assessed by plotting percent displacements against log concentrations and determining half maximal inhibitory concentrations (IC50) by sigmoidal curve fitting using “Sigmoidal dose-response (variable slope) with least squares method” algorithm in GraphPad Prism 8 using the following equation: Y=Bottom+Top−Bottom/1+10^(LogEC50−×)⋅HillSlope

[3] = target: T2, KcsA-Kv1.2 T-only chimera (Streptomyces lividans, UniProt P0A334, R52A/G53D/A54E/P55R/G56E/A57S/L59F/I60P/T61S/Y62I/R64D); assay: Phage-binding competition assay, KcsA-Kv1.2 T-only; parameters: species or system human Kv1.2 turret in Streptomyces lividans KcsA; details: for binding to KcsA-Kv1.2 T-only, in words: HgTx1-phage competition, Fig. 7E (ligand-binding pattern); for Rank, T-only chimera (Kv1.2): rank by competition IC50 among MTX, ShK, KTX1
T2 sequence (P0A334 1-160 R52A/G53D/A54E/P55R/G56E/A57S/L59F/I60P/T61S/Y62I/R64D): T1 sequence (P0A334 1-160 R52A/G53D/A54E/P55R/G56E/A57S/L59F/I60P/T61S/Y62I/R64D)
Protocol: as §1, §2

[4] = HgTx1-phage competition, KcsA-Kv1.2 T-only, value given in figure, sigmoidal fit to means of three replicates, read-out: IC50 (Fig. 7E)

SMILES	inhibition of Kv1.1, in words [1]	IC50 [1] [nM]	IC50 [2, 4] [nM]	binding to KcsA-Kv1.2 T-only, in words [3]	Rank, T-only chimera (Kv1.2) [3]	IC50 ([2]; displacement of HgTx1-phage, KcsA-Kv1.2 T-only 0.025 μg/well on nickel-coated plate, mean ± SD (n = 3), NQ = not quantifiable, read-out: IC50, T-only chimera (Kv1.2)) [nM]	binding to KcsA-Kv1.2 T-only, in words ([3]; listed as MTX1)
CC[C@H](C)[C@@H]1NC(=O)CNC(=O)[C@H](Cc2ccccc2)NC(=O)[C@H](CCC(N)=O)NC(=O)[C@H](C)NC(=O)[C@H](CCCCN)NC(=O)[C@@H]2CSSC[C@@H](C(=O)N[C@@H](Cc3ccc(O)cc3)C(=O)N3CCC[C@H]3C(=O)N[C@@H](Cc3c[nH]cn3)C(=O)O)NC(=O)[C@H](CCCCN)NC(=O)[C@@H]3CSSC[C@H](NC(=O)[C@H](CCC(N)=O)NC(=O)[C@H](CCCCN)NC(=O)[C@@H]4CCCN4C(=O)[C@H](CO)NC(=O)[C@H]([C@@H](C)O)NC(=O)[C@@H](NC(=O)[C@H](CCCCN)NC(=O)[C@@H](NC(=O)[C@H](CC(=O)O)NC(=O)[C@@H](NC(=O)[C@@H](NC(=O)[C@@H](N)[C@@H](C)O)C(C)C)[C@@H](C)CC)C(C)C)CSSC[C@H](NC(=O)[C@H](CCCCN)NC(=O)[C@H](C)NC(=O)CNC(=O)[C@H](C)NC(=O)[C@H](CCCNC(=N)N)NC1=O)C(=O)N[C@@H](CCSC)C(=O)N[C@@H](CC(N)=O)C(=O)NCC(=O)N[C@@H](CCCCN)C(=O)N3)C(=O)N[C@@H](CC(C)C)C(=O)N1CCC[C@H]1C(=O)N1CCC[C@H]1C(=O)N2 [HgTx1, Hongotoxin-1] (HELM PEPTIDE1{T.V.I.D.V.K.C.T.S.P.K.Q.C.L.P.P.C.K.A.Q.F.G.I.R.A.G.A.K.C.M.N.G.K.C.K.C.Y.P.H}$PEPTIDE1,PEPTIDE1,7:R3-29:R3|PEPTIDE1,PEPTIDE1,13:R3-34:R3|PEPTIDE1,PEPTIDE1,17:R3-36:R3$$$V2.0; N-terminus and C-terminus assumed)	equivalent high potency						
CC[C@H](C)[C@H](NC(=O)[C@H](CCC(=O)O)NC(=O)[C@@H](NC(=O)CN)C(C)C)C(=O)N[C@@H](CC(N)=O)C(=O)N[C@H](C(=O)N[C@@H](CCCCN)C(=O)N[C@H]1CSSC[C@@H]2NC(=O)[C@H](CCCCN)NC(=O)CNC(=O)[C@H](Cc3ccccc3)NC(=O)[C@H](CCCNC(=N)N)NC(=O)[C@H](CCSC)NC(=O)CNC(=O)[C@H](C)NC(=O)[C@H](CC(=O)O)NC(=O)[C@H](CCCCN)NC(=O)[C@@H]3CSSC[C@@H](C(=O)N[C@H](C(=O)N4CCC[C@H]4C(=O)N[C@@H](CCCCN)C(=O)O)[C@@H](C)O)NC(=O)[C@H](Cc4c[nH]cn4)NC(=O)[C@H](CSSC[C@H](NC(=O)[C@H](CCC(N)=O)NC(=O)[C@@H]4CCCN4C(=O)[C@H](CO)NC(=O)CNC(=O)[C@H](CO)NC1=O)C(=O)N[C@@H](CC(C)C)C(=O)N[C@@H](CCCCN)C(=O)N1CCC[C@H]1C(=O)N3)NC(=O)[C@H](CCCCN)NC(=O)[C@H](CCCNC(=N)N)NC(=O)[C@H](CC(N)=O)NC(=O)[C@H](CCSC)NC2=O)C(C)C [KTX1, Kaliotoxin-1]		1.1 to 41	0.184	inconsistent with their published channel blocking potencies; also recorded: ShK > KTX1 > MTX	2		
CC[C@H](C)[C@@H]1NC(=O)[C@@H]2CSSC[C@H](NC(=O)[C@H](CO)NC(=O)[C@@H](N)C(C)C)C(=O)N[C@@H]([C@@H](C)O)C(=O)NCC(=O)N[C@@H](CO)C(=O)N[C@@H](CCCCN)C(=O)N[C@@H](CC(=O)O)C(=O)N[C@@H](CSSC[C@@H](C(=O)N[C@@H](CCCCN)C(=O)N[C@H]3CSSC[C@@H](C(N)=O)NC(=O)CNC(=O)[C@H](Cc4ccc(O)cc4)NC3=O)NC(=O)[C@H](CO)NC(=O)[C@H](CCCCN)NC(=O)[C@H](CC(N)=O)NC1=O)C(=O)N[C@@H](Cc1ccc(O)cc1)C(=O)N[C@@H](C)C(=O)N1CCC[C@H]1C(=O)N[C@H]1CSSC[C@H](NC(=O)CNC(=O)[C@H]([C@@H](C)O)NC(=O)[C@H](CCC(N)=O)NC(=O)[C@H](CCCCN)NC(=O)[C@H](CCCNC(=N)N)NC1=O)C(=O)N1CCC[C@H]1C(=O)N[C@@H](CC(N)=O)C(=O)N[C@@H](C)C(=O)N[C@@H](CCCCN)C(=O)N2 [MTX, Maurotoxin] (HELM PEPTIDE1{V.S.C.T.G.S.K.D.C.Y.A.P.C.R.K.Q.T.G.C.P.N.A.K.C.I.N.K.S.C.K.C.Y.G.C.[am]}$PEPTIDE1,PEPTIDE1,3:R3-24:R3|PEPTIDE1,PEPTIDE1,9:R3-29:R3|PEPTIDE1,PEPTIDE1,13:R3-19:R3|PEPTIDE1,PEPTIDE1,31:R3-34:R3$$$V2.0; N-terminus and C-terminus assumed)		> 100		ShK > KTX1 > MTX; also recorded: completely lost its affinity	3	> 1000	negligible binding
CC[C@H](C)[C@@H]1NC(=O)[C@@H](NC(=O)[C@H](CO)NC(=O)[C@@H](N)CCCNC(=N)N)CSSC[C@@H](C(=O)O)NC(=O)[C@H]([C@@H](C)O)NC(=O)CNC(=O)[C@@H]2CSSC[C@@H]3NC(=O)[C@H](CCC(N)=O)NC(=O)[C@H](Cc4ccccc4)NC(=O)[C@H](C)NC(=O)[C@H]([C@@H](C)O)NC(=O)[C@H](CSSC[C@H](NC(=O)[C@H](Cc4ccccc4)NC(=O)[C@H](CO)NC(=O)[C@H](CC(C)C)NC(=O)[C@H](CCCNC(=N)N)NC(=O)[C@H](Cc4ccc(O)cc4)NC(=O)[C@H](CCCCN)NC(=O)[C@H](CCSC)NC(=O)[C@H](CO)NC(=O)[C@H](Cc4c[nH]cn4)NC(=O)[C@H](CCCCN)NC3=O)C(=O)N[C@@H](CCCNC(=N)N)C(=O)N[C@@H](CCCCN)C(=O)N[C@@H]([C@@H](C)O)C(=O)N2)NC(=O)[C@H](CCCNC(=N)N)NC(=O)[C@H](CO)NC(=O)[C@H](CCCCN)NC(=O)[C@@H]2CCCN2C(=O)[C@H]([C@@H](C)CC)NC(=O)[C@H]([C@@H](C)O)NC(=O)[C@H](CC(=O)O)NC1=O [ShK, Stichodactyla toxin]			0.0701	inconsistent with their published channel blocking potencies; also recorded: ShK > KTX1 > MTX	1		
